Experimental data from ChEMBL document CHEMBL2311467, “Microwave-assisted synthesis of pyrimido[4,5-b][1,6]naphthyridin-4(3H)-ones with potential antitumor activity” (Eur J Med Chem, 2013).

Target: Mineralocorticoid receptor (Homo sapiens, UniProt P08235)
Assay: Antagonist activity at mineralocorticoid receptor (unknown origin)

Mineralocorticoid receptor, sequence (P08235 whole entry): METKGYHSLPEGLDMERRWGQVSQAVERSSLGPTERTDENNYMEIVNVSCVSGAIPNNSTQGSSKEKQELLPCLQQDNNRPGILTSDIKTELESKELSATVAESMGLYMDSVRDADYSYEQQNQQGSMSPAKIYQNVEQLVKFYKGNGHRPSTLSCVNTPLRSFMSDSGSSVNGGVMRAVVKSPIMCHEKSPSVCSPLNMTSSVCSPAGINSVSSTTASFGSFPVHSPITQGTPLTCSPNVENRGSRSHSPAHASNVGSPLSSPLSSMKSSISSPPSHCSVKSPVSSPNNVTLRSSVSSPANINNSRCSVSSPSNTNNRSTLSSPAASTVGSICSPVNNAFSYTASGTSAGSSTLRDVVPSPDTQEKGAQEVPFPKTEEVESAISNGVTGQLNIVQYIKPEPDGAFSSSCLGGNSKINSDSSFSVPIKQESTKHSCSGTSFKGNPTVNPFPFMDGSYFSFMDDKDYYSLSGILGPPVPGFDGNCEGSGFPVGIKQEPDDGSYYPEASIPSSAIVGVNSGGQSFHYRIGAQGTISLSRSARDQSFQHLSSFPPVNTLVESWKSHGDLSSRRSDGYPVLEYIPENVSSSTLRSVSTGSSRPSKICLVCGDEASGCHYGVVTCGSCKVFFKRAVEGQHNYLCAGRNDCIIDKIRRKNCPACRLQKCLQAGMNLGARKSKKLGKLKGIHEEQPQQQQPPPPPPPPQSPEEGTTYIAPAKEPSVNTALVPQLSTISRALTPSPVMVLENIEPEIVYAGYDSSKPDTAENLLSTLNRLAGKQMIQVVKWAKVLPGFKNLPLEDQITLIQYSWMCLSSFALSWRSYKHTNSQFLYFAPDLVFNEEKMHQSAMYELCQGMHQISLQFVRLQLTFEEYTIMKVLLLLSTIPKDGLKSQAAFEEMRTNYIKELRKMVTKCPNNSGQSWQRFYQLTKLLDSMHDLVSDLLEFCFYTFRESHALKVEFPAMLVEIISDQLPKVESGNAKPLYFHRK

Compound `CCOc1ncc(C)c2c1[C@H](c1ccc(C#N)cc1OC)C(C(N)=O)=C(C)N2` [FINERENONE] has an IC50 of 18 nM.
